In patent US11338007B2, “Combination formulation of three antiviral compounds” (priority 2016, dated 2022):

Legend:
[1] = Voxilaprevir Form VI pharmacokinetics after single and multiple doses in healthy subjects (Table 2); format: in vivo, human; details: for Ctau: mean
Protocol: Pub. No. 2015/0175625 A1. Initial studies were conducted using the crystalline Form VI of voxilaprevir. As described previously, Form VI of voxilaprevir is characterized by an X-ray powder diffractogram comprising the following peaks (±0.2°): at 14.6, 15.4, and 20.0 °2θ, as determined on a diffractometer using Cu—Kα radiation. Following single and multiple oral doses of voxilaprevir, Form VI, maximum plasma concentrations occurred between 2.0 and 5.0 hours (median tmax). […] Steady-state concentrations of voxilaprevir, Form VI were achieved after 7 days of once-daily dosing across all dose levels (Table 2).

[2] = Relative bioavailability of voxilaprevir amorphous free acid tablets vs Form VI tablets, fasted and fed, healthy subjects (Table 3); format: in vivo, human; details: human, in vivo, oral, single dose 100 mg, healthy subjects, fasted
From the text: Accordingly, a spray dried dispersion of voxilaprevir in the amorphous free acid form was selected for incorporation into the tablet formulation.

[3] = Photostability of tablet cores and film-coated tablets per ICH Q1B (Table 12); format: physicochemical; details: for level of degradation products: tablets film-coated to weight gains 2.1 to 5.4%; for loss after exposure to light: uncoated tablet cores
Protocol: Tablet cores and film-coated tablets were evaluated per ICH Q1B guidelines with a total of illumination of more than 1.2 million-lux hours and a total irradiance of more than 200 W·hr/m^2.

[4] = Tablet dissolution, 50 mM sodium acetate buffer pH 5.0 with 2.0% w/v Polysorbate 80, USP Type II, 75 rpm; format: physicochemical; details: for dissolution at 30 minutes: after 4 weeks open at 40° C./75% RH
Protocol: FIGS. 10-12 depict additional dissolution profiles for the sofosbuvir/velpatasvir SSD/voxilaprevir SSD tablets having the formulation described in Table 13 and which were used in phase 1, 2, and 3 clinical studies, where the dissolution testing was conducted at pH 5.0 acetate buffer containing 2.0% w/v polysorbate 80. Four batches of the sofosbuvir/velpatasvir SSD/voxilaprevir SSD tablets were tested, with Batch A manufactured at 100 kg and Batches B, C and D manufactured at 145 kg. All other aspects of the formulation and manufacturing process were otherwise equivalent. […] Moreover, for Batch A, the amount dissolved at 30 min remained between 98 and 100% for sofosbuvir, between 90 and 92% for velpatasvir SSD, and between 89 and 93% for voxilaprevir SSD. […] For Batch D, the amount dissolved at 30 min remained at 100% for sofosbuvir, between 90 and 91% for velpatasvir SSD, and between 89 and 91% for voxilaprevir SSD. Release of velpatasvir SSD and voxilaprevir SSD from the sofosbuvir/velpatasvir SSD/voxilaprevir SSD tablets associated with all four Batches was complete after 60 minutes.

[5] = Tablet dissolution as a function of medium pH and composition (FIGS. 13-15); format: physicochemical; details: for dissolution from tablets: pH 2.0, 4.5 and 6.8 buffers, FaSSIF and FeSSIF; for dissolution from tablets at 60 minutes: pH 4.0 and 5.0 containing 2.0% w/v polysorbate 80
[6] = Stress studies: stability of tablets made with stressed VEL SSD/VOX SSD (water, residual solvent, peroxide, reprocessing, potency; Tables 16-21); format: physicochemical
Protocol: The impact of the following stressors on the physical and chemical stability of the sofosbuvir/velpatasvir SSD/voxilaprevir SSD tablets were evaluated:
(i) Voxilaprevir SSD and velpatasvir SSD, and sofosbuvir/velpatasvir SSD/voxilaprevir SSD tablet water content;
(ii) Copovidone peroxide content in velpatasvir SSD and in voxilaprevir SSD (iii) Reprocessed velpatasvir SSD and voxilaprevir SSD;
(iv) Voxilaprevir SSD and velpatasvir SSD potency (varying the ratio of velpatasvir or voxilaprevir to copovidone); and
(v) Seeding sofosbuvir/velpatasvir SSD/voxilaprevir SSD tablets with crystalline voxilaprevir Form VIII and Form X drug substances.

[7] = Impact of desiccant and packaging configuration on tablet stability (Tables 24A-24C); format: physicochemical; details: desiccant study (0, 1, 3 g); all conditions, 6 months;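 note: stability of tablets stored with different desiccant amounts and packaging configurations, evaluating physical and chemical stability plus dissolution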
[8] = BCS classification and pH dependence of solubility; format: physicochemical
[9] = Velpatasvir pharmacokinetics after single and multiple oral doses (Table 1); format: in vivo, human; details: for t1/2 / tlast / tmax: median
Protocol: Following single and multiple oral doses of velpatasvir, maximum plasma concentrations occurred between 1.50 and 3.25 hours (median tmax).

[10] = Chemical and physical stability of Formulation G film-coated tablets Lots A and B (Tables 11A, 11B); format: physicochemical; details: packaged Formulation G tablets; 40° C./75% RH and 25° C./60% RH for 6 months
Protocol: In some embodiments, the film-coated tablets were packaged in 75 and 100 mL white HDPE bottles (Lots A and B, respectively, as described in Tables 11A, 11B) with 1 g silica gel desiccant canisters and a polyester fiber coil. The 75 and 100 mL HDPE bottles contained fourteen and twenty eight tablets, respectively. Each HDPE bottle was capped using a continuous thread, child-resistant polypropylene screw cap with an […], aluminum-faced line. The packaged tablets (14 and 28 counts) were evaluated for stability at 40° C./75% RH and 25° C./60% RH. Additionally, the 14-count bottles (without cap) were evaluated for stability under open conditions at 40° C./75% RH.

[11] = SSD potency study, tablet Lots A-D, all conditions
[12] = tablets from VEL SSD 6.0% residual ethanol and VOX SSD 2.1% residual acetone, all conditions
[13] = tablets from VEL SSD 7.0% and VOX SSD 3.2% water content, all conditions

With `CC[C@@H]1[C@@H]2CN(C(=O)[C@H](C(C)(C)C)NC(=O)O[C@@H]3C[C@H]3CCCCC(F)(F)c3nc4ccc(OC)cc4nc3O2)[C@@H]1C(=O)N[C@]1(C(=O)NS(=O)(=O)C2(C)CC2)C[C@H]1C(F)F` [voxilaprevir, Form VI, voxilaprevir] the Ctau ([1]; multiple dose 30 mg) was 1.9 ng/mL, the Ctau ([1]; multiple dose 100 mg) was 5.7 ng/mL and the Ctau ([1]; multiple dose 300 mg) was 10.0 ng/mL. For the same compound, the “steady-state concentrations achieved after” value ([1]; once-daily dosing, all dose levels) was 7 days, the t1/2 ([1]; single dose 300 mg, median) was 35.49 h and the AUC(0-inf) [2] was 326 ng·h/mL. It also gave a Cmax ([2]; read-out: Cmax) of 21.7 ng/mL.
In the case of `CC[C@@H]1[C@@H]2CN(C(=O)[C@H](C(C)(C)C)NC(=O)O[C@@H]3C[C@H]3CCCCC(F)(F)c3nc4ccc(OC)cc4nc3O2)[C@@H]1C(=O)N[C@]1(C(=O)NS(=O)(=O)C2(C)CC2)C[C@H]1C(F)F` [voxilaprevir, (1aR,5S,8S,9S,10R,22aR)-5-tert-butyl-N-{(1R,2R)-2-(difluoromethyl)-1-[(1-methylcyclopropanesulfonyl)carbamoyl]cyclopropyl}-9-ethyl-18,18-difluoro-14-methoxy-3,6-dioxo-1,1a,3,4,5,6,9,10,18,19,20,21,22,22a-tetradecahydro-8H-7,10-methanocyclopropa[18,19][1,10,3,6]dioxadiazacyclononadecino[11,12-b]quinoxaline-8-carboxamide], the “level of degradation products” value [3] is reported as 0.0%, the “loss after exposure to light” value [3] is reported as “no change” and the “dissolution at 30 minutes” value ([4]; potency study Lot A) is reported as 85%. For the same compound, the “dissolution at 30 minutes” value ([4]; potency study Lot B) was 91%, the “dissolution at 30 minutes” value ([4]; potency study Lots C and D) was 92% and the “voxilaprevir released at 30 minutes” value ([4]; tablets containing 0% w/w crystalline voxilaprevir) was 91%. The “voxilaprevir released at 30 minutes” value ([4]; tablets containing neat amorphous voxilaprevir free acid) was 76%, the “voxilaprevir released at 30 minutes” value ([4]; tablets containing voxilaprevir SSD) was 91% and the “voxilaprevir released at 30 minutes” value ([4]; tablets spiked with 5% w/w Form VIII or Form X) was 84%. For the same compound, the “voxilaprevir released at 30 minutes” value ([4]; tablets spiked with 10% w/w Form VIII or Form X) was 80%, the “voxilaprevir released at 30 minutes” value ([4]; tablets spiked with 20% w/w Form VIII or Form X) was 73% and the dissolution from tablets [5] was “Incomplete dissolution”. The “dissolution from tablets at 60 minutes” value [5] was “complete dissolution”, the total impurities/degradation products [6, 11] was 0.7% and the total impurities/degradation products [6, 12] was 0.0%. The total impurities/degradation products [6, 13] was 0.0%, the total impurities/degradation products [7] was 0.0% and the “BCS Class” value [8] was “BCS Class 2”. For the same compound, the “aqueous solubility, pH dependence” value [8] was “pH-dependent”.
For `COC[C@H]1C[C@@H](c2ncc(-c3ccc4c(c3)COc3cc5c(ccc6nc([C@@H]7CC[C@H](C)N7C(=O)[C@@H](NC(=O)OC)C(C)C)[nH]c65)cc3-4)[nH]2)N(C(=O)[C@H](NC(=O)OC)c2ccccc2)C1` [velpatasvir, methyl {(2S)-1-[(2S,5S)-2-(9-{2-[(2S,4S)-1-{(2R)-2-[(methoxycarbonyl)amino]-2-phenylacetyl}-4-(methoxymethyl)pyrrolidin-2-yl]-1H-imidazol-5-yl}-1,11-dihydroisochromeno[4′,3′:6,7]naphtho[1,2-d]imidazol-2-yl)-5-methylpyrrolidin-1-yl]-3-methyl-1-oxobutan-2-yl}carbamate], the CLss/F ([9]; multiple dose 5 mg, mean) was 36,095.7 mL/h, the Cmax ([9]; multiple dose 5 mg, mean) was 28.3 ng/mL and the t1/2 ([9]; multiple dose 5 mg) was 13.73 h. For the same compound, the tlast ([9]; multiple dose 5 mg) was 24.00 h, the tmax ([9]; multiple dose 5 mg) was 2.00 h and the CLss/F ([9]; multiple dose 50 mg, mean) was 19,593.0 mL/h. It also gave a Cmax ([9]; multiple dose 50 mg, mean) of 411.4 ng/mL, a Ctau ([9]; multiple dose 50 mg, mean) of 37.9 ng/mL and a t1/2 ([9]; multiple dose 50 mg) of 13.02 h. The tlast ([9]; multiple dose 50 mg) was 24.00 h, the CLss/F ([9]; multiple dose 150 mg, mean) was 45,082.3 mL/h and the Cmax ([9]; multiple dose 150 mg, mean) was 669.4 ng/mL. For the same compound, the Ctau ([9]; multiple dose 150 mg, mean) was 63.4 ng/mL, the t1/2 ([9]; multiple dose 150 mg) was 15.15 h and the tlast ([9]; multiple dose 150 mg) was 24.00 h. The CLss/F ([9]; multiple dose 450 mg, mean) was 58,804.6 mL/h, the Cmax ([9]; multiple dose 450 mg, mean) was 1195.7 ng/mL and the Ctau ([9]; multiple dose 450 mg, mean) was 127.7 ng/mL. The t1/2 ([9]; multiple dose 450 mg) was 11.74 h, the tlast ([9]; multiple dose 450 mg) was 24.00 h and the tmax ([9]; multiple dose 450 mg) was 3.00 h. For the same compound, the “mean plasma concentration at 24 hours postdose relative to protein-adjusted EC50 for genotype 1 to 6 HCV replicons” value ([9]; multiple once-daily doses greater than 5 mg) was “above”, the CL/F ([9]; single dose 5 mg, mean) was 58,398.0 mL/h and the tlast ([9]; single dose 5 mg) was 24.00 h. For the same compound, the CL/F ([9]; single dose 50 mg, mean) was 19,188.4 mL/h, the Clast ([9]; single dose 50 mg, mean) was 2.34 ng/mL and the tlast ([9]; single dose 50 mg) was 72.00 h. The CL/F ([9]; single dose 100 mg, mean) was 24,617.9 mL/h, the Clast ([9]; single dose 100 mg, mean) was 2.85 ng/mL and the tlast ([9]; single dose 100 mg) was 95.00 h. For the same compound, the CL/F ([9]; single dose 150 mg, excluding one patient, mean (% CV)) was “^bMean (% CV) CL/F for the VEL 150 mg group (excluding one patient) was 31,403.8 (40.5) mL/h”, the CL/F ([9]; single dose 150 mg, mean) was 72,185.5 mL/h and the Clast ([9]; single dose 150 mg, mean) was 2.23 ng/mL. For the same compound, the tlast ([9]; single dose 150 mg) was 96.00 h, the CL/F ([9]; single dose 450 mg, mean) was 53,676.4 mL/h and the Clast ([9]; single dose 450 mg, mean) was 3.28 ng/mL. The tlast ([9]; single dose 450 mg) was 96.00 h, the total impurities/degradation products [10] was 0.0% and the “level of degradation products” value [3] was 0.4%. The “loss after exposure to light” value [3] was “up to 0.3%”, the “dissolution at 30 minutes” value ([4]; potency study Lot A) was 86% and the “dissolution at 30 minutes” value ([4]; potency study Lot B) was 91%. For the same compound, the “dissolution at 30 minutes” value ([4]; potency study Lots C and D) was 89-93%, the “release of velpatasvir at 30 minutes” value ([4]; tablets containing neat amorphous velpatasvir free base) was 62% and the “release of velpatasvir at 30 minutes” value ([4]; tablets containing velpatasvir SSD) was 91%. The dissolution from tablets [5] was “Incomplete dissolution”, the “dissolution from tablets at 60 minutes” value [5] was “complete dissolution” and the total impurities/degradation products [6, 11] was 0.0%. For the same compound, the total impurities/degradation products ([6]; tablets from SSDs with copovidone 544 ppm (VEL SSD) and 655 ppm (VOX SSD) peroxides) was 0.0%, the total impurities/degradation products [6, 12] was 0.0% and the total impurities/degradation products [6, 13] was 0.0%. The “BCS Class” value [8] was “BCS Class 4” and the “aqueous solubility, pH dependence” value [8] was “pH-dependent”.
